Assay results published in BindingDB's records for patent US20240132473 (Shanghai Xunhe Pharmaceutical Technology Co., 2024).

Target: T1, Interleukin-1 receptor-associated kinase 4 (Homo sapiens, UniProt Q9NWZ3)
T1 sequence (Q9NWZ3 whole entry): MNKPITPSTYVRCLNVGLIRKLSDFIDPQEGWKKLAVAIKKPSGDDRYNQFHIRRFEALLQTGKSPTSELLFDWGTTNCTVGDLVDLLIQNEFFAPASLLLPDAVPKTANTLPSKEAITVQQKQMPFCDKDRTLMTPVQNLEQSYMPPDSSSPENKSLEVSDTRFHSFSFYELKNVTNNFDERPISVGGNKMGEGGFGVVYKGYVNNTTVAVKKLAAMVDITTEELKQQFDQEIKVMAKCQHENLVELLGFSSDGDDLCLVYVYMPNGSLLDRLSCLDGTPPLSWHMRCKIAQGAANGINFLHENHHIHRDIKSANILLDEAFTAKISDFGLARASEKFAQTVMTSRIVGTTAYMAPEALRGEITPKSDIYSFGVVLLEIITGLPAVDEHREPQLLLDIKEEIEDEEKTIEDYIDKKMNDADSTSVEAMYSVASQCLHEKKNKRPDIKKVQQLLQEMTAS
Assay: IRAK4 Kinase Inhibitory Activity Assay
Description: The inhibitory activity (IC50) of the compound on IRAK4 kinase under Km ATP was detected by mobility shift assay (MSA). Ten drug concentration gradients were set (initial concentration 1 μM, 3-fold dilution, 2 duplicate wells per concentration). […] After incubation at 28° C. for a period of time, 10 μL of termination buffer was added to terminate the reaction. The conversion rate data was read with Caliper, and then the conversion rate was converted into inhibition rate data. According to the inhibition rate data of each concentration, the IC50 of half inhibitory concentration was calculated by Logit method (Table 3).

Row | IC50 [nM] | Structure (SMILES)
1 | 137 | COc1cc2nn(CCS(C)(=N)=O)cc2cc1NC(=O)c1cccc(C(F)(F)F)n1 (configuration not stated) [US20240132473, Compound MY-004-103]
2 | 152 | CC(C)(O)c1cc2nn(CCS(C)(=N)=O)cc2cc1NC(=O)c1cccc(C(F)(F)F)n1 (configuration not stated) [US20240132473, Compound MY-004-102]
